Data from patent publication US20240423207A1, “PICOLINAMIDE COMPOUNDS WITH FUNGICIDAL ACTIVITY” (CORTEVA AGRISCIENCE LLC, priority 2014, published 2024).
Read-outs that look alike come from different tables or passages of the source.

How the values were obtained:
[1] = test system: Mycosphaerella graminicola; Anamorph: Septoria tritici; test: Leaf Blotch of Wheat (SEPTTR) fungicidal activity on wheat seedlings; type: in vivo; settings: Zymoseptoria tritici, Low Volume, 121.5 g/H
Experimental: Example A: Evaluation of Fungicidal Activity: Leaf Blotch of Wheat (Mycosphaerella graminicola; Anamorph: Septoria tritici; Bayer code […]): Technical grades of materials were dissolved in acetone, which were then mixed with nine volumes of water (H2O) containing 110 ppm Triton X-100. The fungicide solutions were applied onto wheat seedlings using an automated booth sprayer to run-off. All sprayed plants were allowed to air dry prior to further handling. All fungicides were evaluated using the aforementioned method for their activity vs. all target diseases, unless stated otherwise. Wheat leaf blotch and brown rust activity were also evaluated using track spray applications, in which case the fungicides were formulated as EC formulations, containing 0.1% Trycol 5941 in the spray solutions. Wheat plants (variety Yuma) were grown from seed in a greenhouse in 50% mineral soil/50% soil-less Metro mix until the first leaf was fully emerged, with 7-10 seedlings per pot. These plants were inoculated with an aqueous spore suspension of Septoria tritici either prior to or after fungicide treatments. After inoculation the plants were kept in 100% relative humidity (one day in a dark dew chamber followed by two to three days in a lighted dew chamber at 20° C.) to permit spores to germinate and infect the leaf. The plants were then transferred to a greenhouse set at 20° C. for disease to develop. When disease symptoms were fully expressed on the 1st leaves of untreated plants, infection levels were assessed on a scale of 0 to 100 percent disease severity. Percent disease control was calculated using the ratio of disease severity on treated plants relative to untreated plants.

[2] = test system: Puccinia triticina; Synonym: Puccinia recondita f sp. tritici; test: Wheat Brown Rust (PUCCRT) fungicidal activity on wheat seedlings; type: in vivo; settings: Low Volume, 121.5 g/H
Experimental: Technical grades of materials were dissolved in acetone, which were then mixed with nine volumes of water (H2O) containing 110 ppm Triton X-100. The fungicide solutions were applied onto wheat seedlings using an automated booth sprayer to run-off. All sprayed plants were allowed to air dry prior to further handling. All fungicides were evaluated using the aforementioned method for their activity vs. all target diseases, unless stated otherwise. Wheat leaf blotch and brown rust activity were also evaluated using track spray applications, in which case the fungicides were formulated as EC formulations, containing 0.1% Trycol 5941 in the spray solutions. Wheat plants (variety Yuma) were grown from seed in a greenhouse in 50% mineral soil/50% soil-less Metro mix until the first leaf was fully emerged, with 7-10 seedlings per pot. These plants were inoculated with an aqueous spore suspension of Septoria tritici either prior to or after fungicide treatments. After inoculation the plants were kept in 100% relative humidity (one day in a dark dew chamber followed by two to three days in a lighted dew chamber at 20° C.) to permit spores to germinate and infect the leaf. The plants were then transferred to a greenhouse set at 20° C. for disease to develop. When disease symptoms were fully expressed on the 1st leaves of untreated plants, infection levels were assessed on a scale of 0 to 100 percent disease severity. Percent disease control was calculated using the ratio of disease severity on treated plants relative to untreated plants. Example B: Evaluation of Fungicidal Activity: Wheat Brown Rust (Puccinia triticina; Synonym: Puccinia recondita f sp. tritici; Bayer code PUCCRT): Wheat plants (variety Yuma) were grown from seed in a greenhouse in 50% mineral soil/50% soil-less Metro mix until the first leaf was fully emerged, with 7-10 seedlings per pot. These plants were inoculated with an aqueous spore suspension of Puccinia triticina either prior to or after fungicide treatments. After inoculation the plants were kept in a dark dew room at 22° C. with 100% relative humidity overnight to permit spores to germinate and infect the leaf. The plants were then transferred to a greenhouse set at 24° C. for disease to develop. Fungicide formulation, application and disease assessment followed the procedures as described in the Example A.

[3] = 24 h, 1 Day Protectant, read-out: SEPTTR 1DP disease control
[4] = 72 h, 3 Day Curative, read-out: SEPTTR 3DC disease control
[5] = 24 h, 1 Day Protectant, read-out: PUCCRT 1DP disease control
[6] = 72 h, 3 Day Curative, read-out: PUCCRT 3DC disease control

Row | Structure (SMILES) | pest or weed control at 121.5 g/ha [1, 3] [%] | pest or weed control at 121.5 g/ha [1, 4] [%] | pest or weed control at 121.5 g/ha [2, 5] [%] | pest or weed control at 121.5 g/ha [2, 6] [%]
1 | COc1ccnc(C(=O)N[C@@H](C)C(=O)O[C@@H](C)C(OC)(c2ccccc2)c2ccccc2)c1OCOC(C)=O [Cmpd 149] | > 80 | > 80 | < 80 | < 80
2 | COc1ccnc(C(=O)N[C@@H](C)C(=O)O[C@@H](C)C(F)(c2ccccc2)c2ccccc2)c1OC(C)=O [Cmpd 152] | > 80 | > 80 | < 80 | < 80
3 | COc1ccnc(C(=O)N[C@@H](C)C(=O)O[C@@H](C)C(F)(c2ccccc2)c2ccccc2)c1OCOC(C)=O [Cmpd 153] | > 80 | > 80 | < 80 | < 80
4 | COc1ccc(C(c2ccc(OC)cc2)[C@H](C)OC(=O)[C@H](C)NC(=O)c2nccc(OC)c2OC(C)=O)cc1 [Cmpd 155] | > 80 | > 80 | > 80 | > 80
5 | COc1ccnc(C(=O)N[C@@H](C)C(=O)O[C@@H](C)C(c2cccc(F)c2)c2cccc(F)c2)c1OC(C)=O [Cmpd 156] | > 80 | > 80 | > 80 | > 80
6 | COc1ccnc(C(=O)N[C@@H](C)C(=O)O[C@@H](C)C(c2cccc(Cl)c2)c2cccc(Cl)c2)c1OC(C)=O [Cmpd 157] | > 80 | > 80 | > 80 | > 80
7 | COc1ccc(C(c2ccc(OC)cc2)[C@H](C)OC(=O)[C@H](C)NC(=O)c2nccc(OC)c2OCOC(C)=O)cc1 [Cmpd 158] | > 80 | > 80 | > 80 | > 80
8 | COc1ccnc(C(=O)N[C@@H](C)C(=O)O[C@@H](C)C(c2cccc(F)c2)c2cccc(F)c2)c1OCOC(C)=O [Cmpd 159] | > 80 | > 80 | > 80 | > 80
9 | COc1ccnc(C(=O)N[C@@H](C)C(=O)O[C@@H](C)C(c2cccc(Cl)c2)c2cccc(Cl)c2)c1OCOC(C)=O [Cmpd 160] | > 80 | > 80 | > 80 | < 80
10 | COc1ccnc(C(=O)N[C@@H](C)C(=O)OC(C)C2c3ccccc3-c3ccccc32)c1OCOC(C)=O (stereo partly drawn) [Cmpd 163] | < 80 | > 80 | < 80 | 
11 | COc1ccnc(C(=O)N[C@@H](C)C(=O)O[C@@H](C)C(c2ccc(Br)cc2)c2ccc(Br)cc2)c1OC(C)=O [Cmpd 165] | > 80 | > 80 | > 80 | < 80
12 | COc1ccnc(C(=O)N[C@@H](C)C(=O)O[C@@H](C)C(c2ccc(C)s2)c2ccc(C)s2)c1OC(C)=O [Cmpd 166] | < 80 | < 80 | < 80 | 
13 | COc1ccnc(C(=O)N[C@@H](C)C(=O)O[C@@H](C)C(c2ccc(C)cc2)c2ccc(C)cc2)c1OC(C)=O [Cmpd 167] | > 80 | > 80 | > 80 | > 80
14 | COc1ccnc(C(=O)N[C@@H](C)C(=O)O[C@@H](C)C(c2ccc(C)cc2)c2ccc(C)cc2)c1OC(=O)C(C)C [Cmpd 168] | > 80 | > 80 | > 80 | < 80
